In experiment [1] the test system is mice. Description: Passive avoidance test (block of cycloheximide-induced amnesia). It counts as in vivo. Particulars: Mus musculus, 2 h, intraperitoneal administration two hours prior to training, amnestic agent 30 mg/kg cycloheximide i.p., read-out: minimum effective dose (MED). On the procedure:
Passive avoidance is an acute memory paradigm in which mice are allowed to enter a dark compartment from a lighted compartment, but are given a footshock (2 mA for 5 seconds) when they enter the dark compartment. […] If an amnestic agent (30 mg/kg cycloheximide i.p. in saline) immediately after the training session is given to the animals, they will make the transition into the dark compartment (i.e., memory of the shock is lost). Compounds with suspected nootropic or anti-amnestic effects are given by i.p. administration two hours prior to the training trial in attempt to block the effects of cycloheximide. […] This behavioral response is defined as passive avoidance. A no effect response in this test is defined as a failure to stay in the lighted compartment for 120 seconds.

The test system of experiment [2] is mice. The description is as above. It counts as in vivo. Particulars: Mus musculus, oral administration, amnestic agent 30 mg/kg cycloheximide i.p., read-out: minimum effective dose (MED).

In US20020156277A1, “Synthesis and methods of use of purine analogues and derivatives” (priority 2001, published 2002) one finds minimal effective dose data, which are given here for 13 molecules.

Like-named read-outs stand apart in the source and are kept apart here.

`CCOC(=O)c1ccc(NC(=O)CCn2cnc3c(=O)n(CCN(C)C)cnc32)cc1` [Example 4, 4-[3-(1-(2-dimethylaminoethyl)-6-oxo-1,6-dihydropurin-9-yl)propionylamino]benzoic acid ethyl ester]: the minimal effective dose in experiment [1] worked out at 1 mg/kg. On to `CCCCn1cnc2c(ncn2CCC(=O)Nc2ccc(C(=O)OCC)cc2)c1=O` [Example 2, 4-[3-(1-butyl-6-oxo-1,6-dihydropurin-9-yl)propionylamino]benzoic acid ethyl ester], for which, in experiment [1], the minimal effective dose was determined as 0.001 mg/kg. Regarding `CCOC(=O)c1ccc(NC(=O)CCn2cnc3c(N(C)C)ncnc32)cc1` [Example 7, 4-[3-(6-dimethylaminopurin-9-yl)propionylamino]benzoic acid ethyl ester], in experiment [1], the minimal effective dose worked out at 0.01 mg/kg. Turning to `O=C(CCn1cnc2c(=O)n(Cc3ccccc3)cnc21)NCCCN1CCCC1=O` [Example 13, 3-(1-benzyl-6-oxo-1,6-dihydropurin-9-yl)-N-[3-(2-oxopyrrolidin-1-yl)propyl]propionamide], the minimal effective dose in experiment [1] was determined as 1 mg/kg. Turning to `CCOC(=O)c1ccc(NC(=O)C(C)n2cnc3c(=O)[nH]c(=S)[nH]c32)cc1` (stereo not drawn) [Example 9, 4-[2-(6-oxo-2-thioxo-1,2,3,6-tetrahydropurin-9-yl)propionylamino]benzoic acid ethyl ester], the minimal effective dose in experiment [2] worked out at 0.001 mg/kg; in experiment [1], 0.0001 mg/kg. On to `CCCCc1nc2c(ncn2C(C)C(=O)Nc2ccc(C(=O)OCC)cc2)c(=O)[nH]1` (stereo not drawn) [Example 10, 4-[2-(2-butyl-6-oxo-1,6-dihydropurin-9-yl)propionylamino]benzoic acid ethyl ester], for which the minimal effective dose in experiment [1] worked out at 0.1 mg/kg. `COC(=O)c1ccc(N(C)C(=O)CCn2cnc3c(Cl)ncnc32)cc1` [Example 12, 4-{[3-(6-chloropurin-9-yl)propionyl]methylamino}benzoic acid methyl ester]: in experiment [1], the minimal effective dose came out at 0.0001 mg/kg.

`CCOC(=O)c1ccc(NC(=O)C(C)n2cnc3c(=O)[nH]c(-c4ccccc4)nc32)cc1` (stereo not drawn) [Example 11, 4-[2-(6-oxo-2-phenyl-1,6-dihydropurin-9-yl)propionylamino]benzoic acid ethyl ester]: the minimal effective dose in experiment [1] worked out at 10 mg/kg. For the molecule `CCOC(=O)c1ccc(NC(=O)CCn2cnc3c(=O)n(C)cnc32)cc1` [Example 3, 4-[3-(1-methyl-6-oxo-1,6-dihydropurin-9-yl)propionylamino]benzoic acid ethyl ester], the minimal effective dose in experiment [1] was found to be 0.1 mg/kg. Turning to `CCOC(=O)c1ccc(NC(=O)CCn2cnc3c(=O)[nH]c(=O)[nH]c32)cc1` [Example 5, 4-[3-(2,6-dioxo-1,2,3,6-tetrahydropurin-9-yl)propionylamino]benzoic acid ethyl ester], the minimal effective dose in experiment [1] was found to be 0.001 mg/kg. Regarding `CCOC(=O)c1ccc(NC(=O)CCn2cnc3c(=O)n(Cc4ccccc4)cnc32)cc1` [Example 1, 4-[3-(1-benzyl-6-oxo-1,6-dihydropurin-9-yl)propionylamino]benzoic acid ethyl ester], the values for the minimal effective dose in experiment [2] and in experiment [1] were 0.01 mg/kg and 0.0003 mg/kg, respectively. For the molecule `CCOC(=O)c1ccc(NC(=O)CCn2cnc3c(Cl)nc(N)nc32)cc1` [Example 8, 4-[3-(2-amino-6-chloropurin-9-yl)propionylamino]benzoic acid ethyl ester], the minimal effective dose in experiment [1] was 0.01 mg/kg. Consider `O=C(CCn1cnc2c(=O)n(Cc3ccccc3)cnc21)NCCNC(=O)CN1CCCC1=O` [Example 14, 3-(1-benzyl-6-oxo-1,6-dihydropurin-9-yl)-N-{2-[2-(2-oxopyrrolidin-1-yl)acetylamino]ethyl}propionamide], for which the minimal effective dose in experiment [1] worked out at 1 mg/kg.
